“And” between values parts separate entries of the source, which are not always exact repeats. Equal values may be shown once. Read-outs that look alike come from different tables or passages of the source. Positions of bridges follow the written chain, without caps; N, C: chain ends. Residues, ends and D or L forms follow the SMILES beside them.
Legend:
[1] = system: NaV1.7 endogenously expressed in TE-671 cells; assay: Persistent NaV current, TE-671 cells (automated patch clamp); assay type: cell-based
wild-type C57BL/6 mice = assay: Nocifensive behaviors after intraplantar injection, wild-type mice; assay type: in vivo, mouse; settings: wt
Method: Nocifensive responses to intraplantar administration of ExTxA (5–10 nM) were assessed as previously described. In brief, ExTxA was diluted in sterile saline/0.1% BSA and administered by an intraplantar injection (40 μL) into a single hind paw of Tmem233^Cre/Cre, NaV1.7^Advill and wild-type littermate controls. Pain behaviors, consisting of paw licks or flinches, were counted from video recordings by a blinded investigator for up to 60 min following injection.

Drosophila melanogaster = assay type: in vivo; settings: injection 0.5 nmol, affected/total
Method: To test for insecticidal activity, we injected ExTxA into three-day old Drosophila melanogaster females (average weight 0.875 mg). In total 77 D. melanogaster were used for this study: 52 individuals were each injected with 0.5 nmol (50 nL of a […] solution) ExTxA, while 25 individuals served as control group and were injected with vehicle control (3% acetonitrile, 0.1% bovine serum albumin in water) and scored by a blinded observer.

hNaV1.1 = assay: Persistent current, HEK293-hNaV1.1/β1; assay type: cell-based, human; settings: ExTxA 1 µM; individual cells
hNaV1.5 = assay: Persistent current, HEK293-hNaV1.5/β1; assay type: cell-based, human; settings: ExTxA 1 µM
hNaV1.7 [2] = assay type: cell-based, human
hNaV1.7 [3] = assay: Persistent current, CHO hNaV1.7, no β subunit; assay type: cell-based, human; settings: ExTxA 1 µM
[4] = system: DRG neurons from wild-type C57BL/6 mice; assay: Calcium imaging, wild-type DRG neurons; assay type: cell-based, mouse
Method: DRG from all spinal levels were isolated from male and female mice (wild-type C57BL/6 J, Tmem233^Cre/Cre, NaV1.8^Cre/Cre, NaV1.9^−/− or littermate controls) as previously described[36],[38],[39]. For Ca^2+ imaging experiments, DRG neurons were dissociated following incubation with 1% collagenase type IV (Worthington, New Jersey, USA) for 1.5 h (37 °C, 5% CO2) and 2.5% trypsin (Sigma-Aldrich, Montana, USA) for 15 min and resuspended in Dulbecco’s modified Eagle’s medium (DMEM) (Sigma-Aldrich, New South Wales, Australia) supplemented with 10% fetal bovine serum (FBS) (Thermofisher, Massachusetts, USA) and penicillin/streptomycin (Thermofisher, Massachusetts, USA). Following plating in 96-well poly-D-lysine–coated culture plates, isolated neurons were incubated for 24 h at 37 °C with 5% CO2 prior to imaging.
Dissociated DRG neurons from Tmem233^Cre/Cre and C57BL/6 mice were plated on PDL-coated 96-well black-walled imaging plates and loaded with Fluo-4 AM calcium indicator (5 μM) (Invitrogen, Massachusetts, USA) for 1 h in culture medium. Cells were washed with Hanks’ balanced salt solution containing 20 mM HEPES and then transferred to the recording chamber of a Nikon Ti-E Deconvolution inverted microscope equipped with a Lumencor Spectra LED light source. Fluorescence images (excitation, 485 nm; emission, 521 nm) were acquired at 1 frame per second using a ×20 objective. Following the recording of baseline fluorescence (20 s), cells were consecutively exposed to buffer control (0.1% BSA, t = 30 s), ExTxA (10 nM, t = 60 s), and 30 mM KCl (30 mM, t = 210 s). […] Cells responding to buffer control were excluded from analysis.

hNaV1.7/TMEM233 = assay: Persistent current, Xenopus oocytes hNaV1.7/TMEM233; assay type: cell-based, human
Method: Human NaV1.7 and TMEM233 genes cloned into pcDNA3.1 plasmid were linearized with NotI restriction enzyme and used as template for cRNA synthesis using T7 polymerase (mMessage mMachine Kit; Life Technologies). Stage V/VI oocytes were injected with 5–20 ng total RNA, then incubated at 17 °C for 1–3 days in 50% Leibovitz’s L-15 medium (Gibco), supplemented with 25 µg/mL gentamicin, 25 µg/mL streptomycin, and 2.5% fetal horse serum. Two-electrode voltage clamp (Axoclamp 900 A amplifier; Axon Instruments) were performed at room temperature in ND96 solution (in mM: 96 NaCl, 2 KCl, 1 MgCl2, 1.8 CaCl2, 5 HEPES; pH 7.4 with NaOH) with a ∼40 μL recording chamber. In experiments where ExTxA was added, solutions were supplemented with 0.05% fatty-acid free bovine serum albumin. Borosilicate glass microelectrodes had resistances of 0.2–0.8 MΩ when backfilled with 3 M KCl. Data were digitized at 20 kHz and filtered at 2 kHz using pCLAMP 11 software (Digidata 1550B; Axon Instruments).
ExTxA activity was assayed at 1 µM, analyzing the current from a 50 ms step to −10 mV every 10 s, from a holding volage of −80 mV. For all other voltage protocols, oocytes were held at −90 mV. Activation curves were obtained by measuring peak currents during steps from −100 mV to +60 mV in +10 mV increments applied every 10 s, with G/Gmax plot between −80 mV and +10 mV. Steady-state inactivation curves plot the peak current at a test pulse of −10 mV, after a 200 ms pre-pulse from −100 mV to +40 mV in +10 mV increments applied every 10 s. Slow inactivation curves plot the peak current at a test pulse of −10 mV, after a 10 s pre-pulse from −110 mV to −10 mV in +10 mV increments applied every 20 s. To determine recovery from inactivation, oocytes were first stepped to −10 mV, then rested at −90 mV for a variable time interval indicated in the graph, then a second −10 mV depolarization applied to determine the fraction of channls recovered. This protocol was applied every 13 s (time between each initial −10 mV step).

CC[C@H](C)[C@@H]1NC(=O)[C@H](CCCNC(=N)N)NC(=O)[C@H](Cc2ccccc2)NC(=O)[C@H](CC(C)C)NC(=O)[C@H](CO)NC(=O)[C@@H]2CSSC[C@@H]3NC(=O)[C@H]([C@@H](C)O)NC(=O)[C@H](CSSC[C@H](NC(=O)[C@H](CCCNC(=N)N)NC(=O)[C@@H]4CCCN4C(=O)[C@@H](N)CC(C)C)C(=O)N[C@@H](CC(=O)O)C(=O)N[C@@H](CO)C(=O)N4CCC[C@H]4C(=O)N[C@@H](Cc4ccccc4)C(=O)N2)NC(=O)[C@H](CCCCN)NC(=O)[C@H](CC(=O)O)NC(=O)CNC(=O)[C@H](CSSC[C@@H](C(=O)N[C@H](C(=O)N2CCC[C@H]2C(=O)N[C@@H](CC(=O)O)C(=O)N[C@H](C(=O)O)C(C)C)C(C)C)NC(=O)[C@H](CC(C)C)NC(=O)CNC(=O)[C@H](Cc2ccccc2)NC(=O)[C@H]([C@@H](C)CC)NC(=O)[C@@H]2CCCN2C(=O)[C@H](CC(C)C)NC(=O)[C@@H]2CCCN2C(=O)[C@H](C(C)C)NC3=O)NC(=O)[C@H](CC(C)C)NC(=O)CNC1=O [ExTxA, excelsatoxin A] (H-LPRCDSPFCSLFRIGLCGDKCTCVPLPIFGLCVPDV-OH; disulfide 4-21, 9-23, 17-32)
ExTxA-induced persistent current (I40 ms/Ipeak; nA) [1]: 0.8135 | persistent current (I40 ms/Ipeak) [1]: 0.8735 and 0.8209 and 0.7837 and 0.8022 and 0.7553 and 0.8064 and 0.8529 | Mean Diff. of persistent current, Buffer vs. ExTxA ([1]; ExTxA 100 nM): -0.2502 | TE-671 persistent current (I40 ms/Ipeak) ([1]; ExTxA 100 nM, individual cells): 0.226 and 0.2237 and 0.255 and 0.3482 and 0.2794 and 0.2574 and 0.2313 and 0.3524 | TE-671 persistent current (I40 ms/Ipeak) ([1]; ExTxA 100 nM, mean, n = 8): 0.272 ± 0.018 and 0.2717 | persistent current (I40 ms/Ipeak) ([1]; ExTxA 1 µM, individual cells): 0.6558 and 0.8078 and 0.6143 and 0.6966 and 0.7266 and 0.5751 and 0.7653 and 0.7674 and 0.8038 and 0.7341 and 0.767 | Δ persistent current (I40 ms/Ipeak; buffer cf. ExTxA) ([1]; ExTxA 1 µM, mean): 0.719 ± 0.0230 and 0.7194 | ExTxA-induced persistent current (I40 ms/Ipeak; nA) ([1]; ExTxA 1 µM, wildtype TE-671 (Fig. 3d), mean, n = 7): 0.81 ± 0.015 | cumulative flinches (60 min) (wild-type C57BL/6 mice; i.pl. ExTxA 10 nM, 40 μL, mean, n = 4): 319.3 ± 21.9 and 319.3 | cumulative flinches (60 min) (wild-type C57BL/6 mice; i.pl. ExTxA 10 nM, individual animals): 318 and 332 and 366 and 261 | ExTxA-induced pain behaviours (cumulative paw licks and flinches over 40 min) (wild-type C57BL/6 mice; i.pl. ExTxA 10 nM, mean ± SEM, n = 17): 234.2 ± 27.7 | nocifensive behaviors, 0-40 min combined (Fig. 3g) (wild-type C57BL/6 mice; 0-40 min, individual animals, one line each (n = 17)): 186 and 191 and 216 and 226 and 100 and 220 and 228 and 281 and 150 and 168 and 177 and 96 and 381 and 537 and 153 | nocifensive behaviors, 0-40 min combined, mean (Fig. 3g) (wild-type C57BL/6 mice; 0-40 min, mean, n = 17): 234.2 | paralysis (Drosophila melanogaster; after 15 min, control 1/25): 2/52 | death (Drosophila melanogaster; after 2 h, control 0/25): 1/52 | persistent current (I40 ms/Ipeak) (hNaV1.1): 0.000881 and 0.001374 and 0.002237 and -0.03938 and -0.00046 and -0.00216 and -0.00201 and 0.01125 and 0.00618 and -0.00021 and -0.01358 | persistent current (I40 ms/Ipeak) (hNaV1.5; individual cells): 0.001512 and 0.003695 and 0.000623 and -0.00019 and 0.001997 and -0.00321 and -0.00096 and -7.2e-5 and 0.000901 and 0.000208 and 0.000397 | Δ persistent current (I40 ms/Ipeak; buffer cf. ExTxA) (hNaV1.5; mean): 0.0004 ± 0.0005 and 0.0003926 | persistent current, Predicted (LS) mean diff. (hNaV1.7 [2]): -0.04169 | persistent current (I40 ms/Ipeak) (hNaV1.7 [2]; ExTxA 100 nM in ECS, mean ± SEM, n = 10): 0.04 ± 0.014 | persistent current (I40 ms/Ipeak) (hNaV1.7 [2]; ExTxA 100 nM in ICS, mean ± SEM, n = 10): -0.002 ± 0.004 | persistent current (hNaV1.7 [2]; ExTxA 1 µM, HEK NaV1.7/β1, individual cells): -10.167 pA and -21.3045 pA and 17.0051 pA and 11.4493 pA and -20.8771 pA and -5.293 pA and -9.443 pA and -10.0671 pA and 5.003 pA and -11.1496 pA and -2.37 pA | persistent current (I40 ms/Ipeak) (hNaV1.7 [2]; ExTxA 1 µM, individual cells): -0.00096 and -0.00393 and -0.00509 and -0.00016 and 0.00507 and -0.00078 and -0.00158 and -0.00022 and -9.8e-6 and 0.000228 and 0.002683 | CHO cells persistent current (I40 ms) (hNaV1.7 [3]; hNaV1.7 alone, mean ± SEM, n = 6): 0.000 ± 0.002 nA | Δ persistent current (I40 ms/Ipeak) in CHO hNaV1.7 (hNaV1.7 [3]; no β subunit, mean, n = 12): 0.001 ± 0.004 and 0.0009513 | ExTxA-induced DRG Ca2+ responses ([4]; ExTxA 10 nM, wt, Fluo-4, >1.5-fold increase, mean ± SEM, n = 10 wells): 53.20 ± 1.789 % neurons activated | calcium imaging response (Fig. 3f) ([4]; WT, individual values, one line each (n = 10)): 51.5152 and 56.8182 and 58.0645 and 43.75 and 44.8276 and 50.7042 and 59.292 and 51.8519 | calcium imaging response (Fig. 3f), Mean ([4]; WT, mean, number of values 10, Std. Deviation 5.657, SEM 1.789): 53.2 | calcium imaging response (Fig. 3f), Median ([4]; WT, median, number of values 10): 53.9 | Xenopus oocyte persistent current (I40 ms/Ipeak) (hNaV1.7/TMEM233): 0.727 ± 0.020 | Nav:TMEM, 1:1 molar, mean (persistent current) (hNaV1.7/TMEM233; Supplementary Fig 1f, 1 uM, toxin not named, mean of n = 6, Control mean 0.0806, n = 6): 0.727 | Nav:TMEM, 1:1 molar, individual values (persistent current) (hNaV1.7/TMEM233; Supplementary Fig 1f, 1 uM, toxin not named, single replicates): 0.6869 and 0.7919 and 0.702 and 0.7846 and 0.7038 and 0.6927 | Nav:TMEM, 1:1 molar, difference between means (1 uM - Control) ± SEM (hNaV1.7/TMEM233; Supplementary Fig 1f, unpaired t test P <0.0001, 95% CI 0.5949 to 0.6979): 0.6464 ± 0.0231

From article PMC10147923, “Pain-causing stinging nettle toxins target TMEM233 to modulate NaV1.7 function” (Nature Communications, 2023)
